Measurements reported in patent US12421535B2, “Biochemically produced sandalwood oil” (FIRMENICH SA, priority 2019, dated 2025).

Tests used:
ticks (Ixodes ricinus) = assay: Tick repellency, adapted Warm Plate assay; type: in vivo
Protocol: The repellent effect was determined on ticks (Ixodes ricinus) using an adaptation of the Warm Plate assay as defined in Kröber T, Bourquin M, Guerin P M. A standardised in vivo and in vitro test method for evaluating tick repellents. Pesticide Biochemistry and Physiology. 2013; 107(2):160-168, adapted in reducing the size of the arena and adding a controlled temperature and humid air flow to the set-up.

NHDF = assay: Anti-inflammatory test, cytokine release (ELISA), LPS-challenged fibroblasts; type: cell-based, human; settings: LPS 0.5 ug/ml
Protocol: (§1) Monolayer cultures of Normal Human foreskin-derived Dermal Fibroblasts (NHDFs; ATCC, CRL-2522) were used for the anti-inflammatory study. The cells were grown in Dulbecco's Modified Eagle Medium (DMEM, Gibco/Life Technologies, 31885) supplemented with 10% of Foetal Bovine Serum (FBS, Gibco/Life Technologies, 10270) and antibiotics (penicillin/streptomycin, Gibco/Life Technologies, 15140). Monolayer cultures of Normal Human Epidermal Keratinocytes (NHEKs; Lonza, 00192906) were used for the anti-inflammatory study. The cells were grown in Epilife medium containing gentamycin and HKGS (Human Keratinocyte Growth Supplement).
(§2) The cells were maintained in a humidified incubator at 37° C. with a 5% CO2 atmosphere for the indicated treatment periods before performing metabolic, cytokine and gene expression assays.
(§3) Both NHEK and NHDF cell types were cultured in 24-well plates for 24 h in complete medium before being exposed to the test and reference items. Test compositions were applied on the cells 2 h before the 24 h-challenge with pro-inflammatory agents (see table below). Each sample was compared to solvent control conditions. At the end of treatment, all the supernatants were collected and stored at −20° C. until further use in specific ELISA assays for the quantification of the extracellular release of IL-8, IL-6, TNF-α, MCP-1 and CXCL5, based on a standard curve, according to the kits supplier's specifications.
(§4) Sandalwood oil of the invention was tested at 20 μg/ml on both keratinocytes and fibroblasts, in a comparison with S. album essential oil. Keratinocytes and fibroblasts were cultivated under conditions that stimulate the onset of inflammation. After induction of an inflammation state and test compounds application, cell culture supernatants were collected for further ELISA quantification. The ability of the ingredients in reducing the production of selected inflammation markers (MCP-1, CXCL5, IL-6, IL-8 and TNFalpha for NHEK only) was then measured by ELISA (Enzyme-Linked ImmunoSorbent Assay), a biochemical assay commonly used to quantify substances.

NHEK = assay: Anti-inflammatory test, cytokine release (ELISA), keratinocytes challenged with TNFα or PMA + A23187; type: cell-based, human; settings: for IL-6 % Reduction (vs A23187/EtOH) / IL-6 % Stimulation (vs Untreated) / IL-8 % Reduction (vs PMA + A23187/EtOH) / IL-8 % Stimulation (vs Untreated) / TNFα % Reduction (vs PMA + A23187/EtOH) / TNFα % Stimulation (vs Untreated): PMA 10 ng/ml + A23187 2 uM; for CXCL-5 % Reduction (vs TNFa/EtOH) / CXCL-5 % Stimulation (vs Untreated) / MCP-1 % Reduction (vs TNFa/EtOH) / MCP-1 % Stimulation (vs Untreated): TNFa 50 ng/ml
Protocol: as §1, §2, §3, §4

[1] = system: Reconstructed Human Epidermis (RHE) mimicking sensitive skin; assay: Protein expression (immuno-fluorescence) in RHE model mimicking sensitive skin; type: cell-based; settings: Cytokine Mix + solvent, 10 uM, 48 h, untreated = 100
Protocol: Human epidermis was reconstituted in vitro as described previously. […] Sandalwood oil of the invention was diluted at 20 μg/ml and 40 μg/ml in culture medium and added together with the cytokine cocktail during the same 48 h. The reference compound GW3965 (10 μM), a synthetic nonsteroidal liver X receptor (LXR) agonist was applied in the culture medium for 48 h as well. Protein levels of loricrin, involucrin and HAS3 were quantified at the end of the treatments by immuno-fluorescence. One section of each sample was dewaxed and rehydrated and the slides were incubated in the presence of the primary antibody specific for each of the 3 target proteins. Fluorescein-conjugated secondary antibodies were then used to detect the primary antibodies. DAPI Slowfade Diamond was used to detect the nuclei of the cells.

NHDFs fibroblasts = assay: Cytotoxicity MTS assay, NHDFs under LPS challenge; type: cell-based, human; settings: SDS 0.08%, 26 h
Protocol: (§5) A preliminary study was performed in order to determine the non-cytotoxic working concentrations for both the sandalwood oil of the invention and a reference sandalwood oil. The cell viability was evaluated using the standard MTS assay (3-(4,5-dimethythiazol-2-yl)-5-(3-carboxy-methoxyphenyl)-2-(4-sulfophenyl)-2H-tetrazolium) after treatment with the test ingredients (160-80-40-20-10 μg/ml, tested in triplicate).
(§6) The test was performed both under basal conditions (i.e. without pro-inflammatory challenge) and pro-inflammatory stimuli for either 24 h-72 h or 26 h, respectively. Cells were seeded in 24-wells plates with complete medium, 24 h before treatment.
(§7) Test ingredients were solubilized in solvent (DMSO or ethanol) and applied to the culture medium of cells 2 hours prior to the pro-inflammatory challenge (when required). SDS at 0.008% or 0.08% was used as cytotoxicity positive control to validate the experiment on NHEKs keratinocytes or NHDFs fibroblasts, respectively.
(§8) In order to ensure experiments would be carried out with test composition concentrations that are non-cytotoxic, a cytotoxicity study was performed on NHEK and NHDF after 26 h of treatment (2 h alone and 24 h under inflammatory challenge with LPS for NHDFs fibroblasts and PMA/calcium ionophore or TNF-α for NHEKs). […]

[2] = system: Reconstructed Human Epidermis (RHE); assay: Permeability of Reconstructed Human Epidermis, biotin diffusion; type: cell-based
NHEKs keratinocytes = assay: Cytotoxicity MTS assay, NHEKs under PMA/calcium ionophore or TNF-α challenge; type: cell-based, human; settings: SDS 0.008%, 26 h
Protocol: as §5, §6, §7, §8

CCN(CC)C(=O)c1cccc(C)c1 [DEET, N,N-diethyl-meta-toluamide]
% of affected ticks (ticks (Ixodes ricinus); 0.016 mg/mL): 11%
% of affected ticks (ticks (Ixodes ricinus); 0.4 mg/mL): 20%
% of affected ticks (ticks (Ixodes ricinus); 10 mg/mL): 81%

C[C@@H]1C[C@H]2[C@@H]3CCC4=CC(=O)C=C[C@]4(C)[C@@]3(F)[C@@H](O)C[C@]2(C)[C@@]1(O)C(=O)CO [Dexamethasone]
CXCL-5 % Reduction (vs LPS/EtOH) (NHDF; 10 uM): 77%
CXCL-5 % Stimulation (vs Untreated) (NHDF; 10 uM): 6414%
IL-6 % Reduction (vs LPS/EtOH) (NHDF; 10 uM): −70%
IL-6 % Stimulation (vs Untreated) (NHDF; 10 uM): 6606%
IL-8 % Reduction (vs LPS/EtOH) (NHDF; 10 uM): −39%
IL-8 % Stimulation (vs Untreated) (NHDF; 10 uM): 7738%
MCP-1 % Reduction (vs LPS/EtOH) (NHDF; 10 uM): −23%
MCP-1 % Stimulation (vs Untreated) (NHDF; 10 uM): 1067%
IL-6 % Reduction (vs A23187/EtOH) (NHEK; 10 uM): −55%
IL-6 % Stimulation (vs Untreated) (NHEK; 10 uM): 275%
IL-8 % Reduction (vs PMA + A23187/EtOH) (NHEK; 10 uM): −25%
IL-8 % Stimulation (vs Untreated) (NHEK; 10 uM): 14801%
TNFα % Reduction (vs PMA + A23187/EtOH) (NHEK; 10 uM): −57%
TNFα % Stimulation (vs Untreated) (NHEK; 10 uM): 33869%
CXCL-5 % Reduction (vs TNFa/EtOH) (NHEK; 10 uM): 251%
CXCL-5 % Stimulation (vs Untreated) (NHEK; 10 uM): 1525%
MCP-1 % Reduction (vs TNFa/EtOH) (NHEK; 10 uM): −53%
MCP-1 % Stimulation (vs Untreated) (NHEK; 10 uM): 1432%

O=C(O)Cc1cccc(OCCCN(Cc2cccc(C(F)(F)F)c2Cl)CC(c2ccccc2)c2ccccc2)c1 [GW3965]
Hyaluronan synthase 3 (HAS 3) RQ [1]: 106
Involucrin (IVL) RQ [1]: 160

CCCCN(CCC(=O)OCC)C(C)=O [IR3535, Ethyl butylacetylaminopropionate]
% of affected ticks (ticks (Ixodes ricinus); 0.016 mg/mL): 0%
% of affected ticks (ticks (Ixodes ricinus); 0.4 mg/mL): 33%
% of affected ticks (ticks (Ixodes ricinus); 10 mg/mL): 56%

CC(C)Cc1ccc(C(C)C(=O)O)cc1 (centres unmarked) [Ibuprofen]
CXCL-5 % Reduction (vs LPS/EtOH) (NHDF; 100 uM): −19%
CXCL-5 % Stimulation (vs Untreated) (NHDF; 100 uM): 2929%
IL-6 % Reduction (vs LPS/EtOH) (NHDF; 100 uM): −24%
IL-6 % Stimulation (vs Untreated) (NHDF; 100 uM): 16853%
IL-8 % Reduction (vs LPS/EtOH) (NHDF; 100 uM): −14%
IL-8 % Stimulation (vs Untreated) (NHDF; 100 uM): 11037%
MCP-1 % Reduction (vs LPS/EtOH) (NHDF; 100 uM): −4%
MCP-1 % Stimulation (vs Untreated) (NHDF; 100 uM): 1342%
CXCL-5 % Reduction (vs LPS/EtOH) (NHDF; 500 uM): −39%
CXCL-5 % Stimulation (vs Untreated) (NHDF; 500 uM): 2216%
IL-6 % Reduction (vs LPS/EtOH) (NHDF; 500 uM): −46%
IL-6 % Stimulation (vs Untreated) (NHDF; 500 uM): 11977%
IL-8 % Reduction (vs LPS/EtOH) (NHDF; 500 uM): −36%
IL-8 % Stimulation (vs Untreated) (NHDF; 500 uM): 8242%
MCP-1 % Reduction (vs LPS/EtOH) (NHDF; 500 uM): −32%
MCP-1 % Stimulation (vs Untreated) (NHDF; 500 uM): 950%
IL-6 % Reduction (vs A23187/EtOH) (NHEK; 100 uM): −24%
IL-6 % Stimulation (vs Untreated) (NHEK; 100 uM): 462%
IL-8 % Reduction (vs PMA + A23187/EtOH) (NHEK; 100 uM): −19%
IL-8 % Stimulation (vs Untreated) (NHEK; 100 uM): 16034%
TNFα % Reduction (vs PMA + A23187/EtOH) (NHEK; 100 uM): −29%
TNFα % Stimulation (vs Untreated) (NHEK; 100 uM): 55645%
IL-6 % Reduction (vs A23187/EtOH) (NHEK; 500 uM): −67%
IL-6 % Stimulation (vs Untreated) (NHEK; 500 uM): 202%
IL-8 % Reduction (vs PMA + A23187/EtOH) (NHEK; 500 uM): −39%
IL-8 % Stimulation (vs Untreated) (NHEK; 500 uM): 12190%
TNFα % Reduction (vs PMA + A23187/EtOH) (NHEK; 500 uM): −85%
TNFα % Stimulation (vs Untreated) (NHEK; 500 uM): 12099%
secretion levels of mediators of inflammation (NHEK; PMA + A23187 or TNF-α, dexamethasone with the exception of CXCL-5): reduced significantly
CXCL-5 % Reduction (vs TNFa/EtOH) (NHEK; 100 uM): −22%
CXCL-5 % Stimulation (vs Untreated) (NHEK; 100 uM): 337%
MCP-1 % Reduction (vs TNFa/EtOH) (NHEK; 100 uM): −18%
MCP-1 % Stimulation (vs Untreated) (NHEK; 100 uM): 2471%
CXCL-5 % Reduction (vs TNFa/EtOH) (NHEK; 500 uM): −47%
CXCL-5 % Stimulation (vs Untreated) (NHEK; 500 uM): 229%
MCP-1 % Reduction (vs TNFa/EtOH) (NHEK; 500 uM): −63%
MCP-1 % Stimulation (vs Untreated) (NHEK; 500 uM): 1126%

CCC(C)OC(=O)N1CCCCC1CCO (centres unmarked) [Picaridin, sec-butyl 2-(2-hydroxyethyl)piperidine-1-carboxylate]
% of affected ticks (ticks (Ixodes ricinus); 0.016 mg/mL): 8%
% of affected ticks (ticks (Ixodes ricinus); 0.4 mg/mL): 50%
% of affected ticks (ticks (Ixodes ricinus); 10 mg/mL): 92%

CCCCCCCCCCCCOS(=O)(=O)[O-].[Na+] [SDS]
cell viability (NHDFs fibroblasts): strong decrease in cell viability
Surface stained*mean intensity/surface area ([2]; 48 h, SDS 0.005%): 103
biotin abundance (% relative to untreated) ([2]; 48 h, SDS 0.005%, versus untreated): 614%
barrier function of epidermis ([2]; SDS at 0.005%, compared to untreated control): reduced the barrier function
cell viability (NHEKs keratinocytes): strong decrease in cell viability
